Experimental data published in ChEMBL document CHEMBL5543126, “Combinatorial Ubiquitination REal-time PROteolysis (CURE-PROs): A Modular Platform for Generating Reversible, Self-Assembling Bifunctional Targeted Degraders” (J Med Chem, 2024).
The source made the active and inactive calls. The rule behind the calls is not given here.

Columns and labels:
[1] = biological target: T1, Protein cereblon/Bromodomain-containing protein 4 (Homo sapiens) (UniProt O60885+Q96SW2); assay: PROTAC activity at BRD4/CRBN in human HeLa cells assessed as induction of BRD4 degradation at 10 uM incubated for 24 hrs in presence of CRBN based ligand N-((2-(2,6-dioxopiperidin-3-yl)-1,3-dioxoisoindolin-4-yl)methyl)-2,3-dihydroxybenzamide by Combinatorial Ubiquitination Real-time PROteolysis analysis; assay type: cell-based
[2] = biological target: T1, Protein cereblon/Bromodomain-containing protein 4 (Homo sapiens); assay: PROTAC activity at BRD4/CRBN in human HeLa cells assessed as induction of BRD4 degradation at 10 uM incubated for 24 hrs in presence of JQ1 by Western blot analysis; assay type: cell-based
[3] = biological target: T1, Protein cereblon/Bromodomain-containing protein 4 (Homo sapiens); assay: PROTAC activity at BRD4/CRBN in human HeLa cells assessed as induction of BRD4 degradation in presence of N-((2-(2,6-dioxopiperidin-3-yl)-1,3-dioxoisoindolin-4-yl)methyl)-2,3-dihydroxybenzamide by Combinatorial Ubiquitination Real-time PROteolysis analysis; assay type: cell-based; conditions: dose 0.1-10 µM
[4] = biological target: T2, Protein cereblon/Bromodomain-containing protein 3 (Homo sapiens) (UniProt Q15059+Q96SW2); assay: PROTAC activity at BRD3/CRBN in human HeLa cells assessed as induction of BRD3 degradation at 10 uM in presence of CRBN ligand based N-((2-(2,6-dioxopiperidin-3-yl)-1,3-dioxoisoindolin-4-yl)methyl)-2,3-dihydroxybenzamide incubated for 24 hrs by Combinatorial Ubiquitination Real-time PROteolysis analysis; assay type: cell-based
[5] = biological target: T2, Protein cereblon/Bromodomain-containing protein 3 (Homo sapiens); assay: PROTAC activity at BRD2/CRBN in human HeLa cells assessed as induction of BRD2 degradation at 10 uM in presence of CRBN ligand based N-((2-(2,6-dioxopiperidin-3-yl)-1,3-dioxoisoindolin-4-yl)methyl)-2,3-dihydroxybenzamide incubated for 24 hrs by Combinatorial Ubiquitination Real-time PROteolysis analysis; assay type: cell-based
[6] = biological target: T1, Protein cereblon/Bromodomain-containing protein 4 (Homo sapiens); assay: PROTAC activity at BRD4/CRBN in human HeLa cells assessed as induction of BRD4 degradation at 10 uM incubated for 24 hrs in presence of BRD4 based ligand (3-((4S)-6-(4-chlorophenyl)-4-(2-(ethylamino)-2-oxoethyl)-1-methyl4H-benzo[f][1,2,4]triazolo[4,3-a][1,4]diazepin-8-yl)phenyl)boronic acid by Combinatorial Ubiquitination Real-time PROteolysis analysis; assay type: cell-based
BRD2/CRBN (Homo sapiens) = assay: PROTAC activity at BRD2/CRBN in human HeLa cells assessed as induction of BRD2 degradation at 10 uM in presence of BRD3 ligand based (3-((4-((4S)-4-(2-(ethylamino)-2-oxoethyl)-8-methoxy-1-methyl4Hbenzo[f][1,2,4]triazolo[4,3-a][1,4]diazepin-6-yl)phenyl)thio)phenyl)boronic acid incubated for 24 hrs …
[7] = biological target: T2, Protein cereblon/Bromodomain-containing protein 3 (Homo sapiens); assay: PROTAC activity at BRD3/CRBN in human HeLa cells assessed as induction of BRD3 degradation at 10 uM in presence of BRD3 ligand based (3-((4-((4S)-4-(2-(ethylamino)-2-oxoethyl)-8-methoxy-1-methyl4Hbenzo[f][1,2,4]triazolo[4,3-a][1,4]diazepin-6-yl)phenyl)thio)phenyl)boronic acid incubated for 24 hrs by Combinatorial Ubiquitination Real-time PROteolysis analysis; assay type: cell-based
[8] = biological target: T1, Protein cereblon/Bromodomain-containing protein 4 (Homo sapiens); assay: PROTAC activity at BRD4/CRBN in human HeLa cells assessed as induction of BRD4 degradation at 0.1 to 10 uM in presence of N-((2-(2,6-dioxopiperidin-3-yl)-1,3-dioxoisoindolin-4-yl)methyl)-2,3-dihydroxybenzamide by Combinatorial Ubiquitination Real-time PROteolysis analysis; assay type: cell-based; conditions: dose 0.1-10 µM
[9] = biological target: von Hippel-Lindau disease tumor suppressor/Bromodomain-containing protein 4 (Homo sapiens, UniProt O60885+P40337); assay: PROTAC activity at BRD4/VHL in human MCF7 cells assessed as reduction in BRD4 level incubated for 24 hrs in presence of VHL based ligand (2S,4R)-1-((S)-2-(3,4-dihydroxybenzamido)-3,3-dimethylbutanoyl)-4-hydroxy-N-(4-(4-methylthiazol-5-yl)benzyl)pyrrolidine-2-carboxamide by Western blot based Combinatorial Ubiquitination Real-time PROteolysis analysis; assay type: cell-based
NAMALVA [10] = assay: Antiproliferative activity against human NAMALVA cells assessed as reduction in cell viability incubated for 72 hrs in presence of MDM2 ligand based (4-((2-(4-((4S,5R)-4,5-bis(4-chlorophenyl)-2-(2-isopropoxy-4-methoxyphenyl)-4,5-dihydro-1H-imidazole-1-carbonyl)-2-oxopiperazin-1-yl)ethyl)carbamoyl)phenyl)boronic acid by celltiter-glo assay; assay type: functional
[11] = biological target: T3, BRD4/E3 ubiquitin-protein ligase Mdm2 (Homo sapiens) (UniProt Q00987+O60885); assay: (§1) PROTAC activity at MDM2/BRD4 in human HCT-116 cells assessed as activation of caspase3/7 incubated for 6 hrs in presence of MDM2 ligand based (4-((2-(4-((4S,5R)-4,5-bis(4-chlorophenyl)-2-(2-isopropoxy-4-methoxyphenyl)-4,5-dihydro-1H-imidazole-1-carbonyl)-2-oxopiperazin-1-yl)ethyl)carbamoyl)phenyl)boronic acid by Combinatorial Ubiquitination Real-time PROteolysis analysis; assay type: cell-based
[12] = biological target: T3, BRD4/E3 ubiquitin-protein ligase Mdm2 (Homo sapiens); assay: as §1, with “as downregulation” for “as activation”, “of SLC19A1 level at 10 uM” for “of caspase3/7”, “for 24” for “for 6”, “by qPCR based” for “by”; assay type: cell-based
[13] = biological target: T3, BRD4/E3 ubiquitin-protein ligase Mdm2 (Homo sapiens); assay: as §1, with “induction” for “activation”, “BRD4 degradation” for “caspase3/7”; assay type: cell-based
NAMALVA [14] = assay: Antiproliferative activity against human NAMALVA cells assessed as reduction in cell viability incubated for 72 hrs by celltiter-glo assay; assay type: functional, cell-based
[15] = biological target: T3, BRD4/E3 ubiquitin-protein ligase Mdm2 (Homo sapiens); assay: (§2) PROTAC activity at MDM2/BRD4 in human HCT-116 cells assessed as induction of BRD4 degradation incubated for 6 hrs in presence of BRD4 ligand based (86)-N-(2-(2-(((4S)-6-(4-chlorophenyl)-4-(2-(ethylamino)-2-oxoethyl)-1-methyl-4H-benzo[f][1,2,4]triazolo[4,3-a][1,4]diazepin-8-yl)oxy)ethoxy)ethyl)-2,3-dihydroxybenzamide by Combinatorial Ubiquitination Real-time PROteolysis analysis; assay type: cell-based
NAMALVA [16] = assay: Antiproliferative activity against human NAMALVA cells assessed as reduction in cell viability incubated for 72 hrs in presence of BRD4 ligand based (86)-N-(2-(2-(((4S)-6-(4-chlorophenyl)-4-(2-(ethylamino)-2-oxoethyl)-1-methyl-4H-benzo[f][1,2,4]triazolo[4,3-a][1,4]diazepin-8-yl)oxy)ethoxy)ethyl)-2,3-dihydroxybenzamide by celltiter-glo assay; assay type: functional
[17] = biological target: T3, BRD4/E3 ubiquitin-protein ligase Mdm2 (Homo sapiens); assay: PROTAC activity at MDM2/BRD4 in human HCT-116 cells assessed as downregulation of SLC19A1 level at 10 uM incubated for 24 hrs in presence of BRD4 ligand based (86)-N-(2-(2-(((4S)-6-(4-chlorophenyl)-4-(2-(ethylamino)-2-oxoethyl)-1-methyl-4H-benzo[f][1,2,4]triazolo[4,3-a][1,4]diazepin-8-yl)oxy)ethoxy)ethyl)-2,3-dihydroxybenzamid by qPCR based Combinatorial Ubiquitination Real-time PROteolysis analysis; assay type: cell-based
[18] = biological target: T3, BRD4/E3 ubiquitin-protein ligase Mdm2 (Homo sapiens); assay: PROTAC activity at MDM2/BRD4 in human HCT-116 cells assessed as downregulation of SLC19A1 level at 10 uM incubated for 24 hrs by qPCR analysis; assay type: cell-based
[19] = biological target: T3, BRD4/E3 ubiquitin-protein ligase Mdm2 (Homo sapiens); assay: as §2, with “activation” for “induction”, “caspase 3/7” for “BRD4 degradation”; assay type: cell-based
[20] = biological target: T3, BRD4/E3 ubiquitin-protein ligase Mdm2 (Homo sapiens); assay: PROTAC activity at MDM2/BRD4 in human HCT-116 cells assessed as induction of BRD4 degradation incubated for 6 hrs; assay type: cell-based

T1 sequence (Q96SW2 whole entry, looked up, other chains not shown): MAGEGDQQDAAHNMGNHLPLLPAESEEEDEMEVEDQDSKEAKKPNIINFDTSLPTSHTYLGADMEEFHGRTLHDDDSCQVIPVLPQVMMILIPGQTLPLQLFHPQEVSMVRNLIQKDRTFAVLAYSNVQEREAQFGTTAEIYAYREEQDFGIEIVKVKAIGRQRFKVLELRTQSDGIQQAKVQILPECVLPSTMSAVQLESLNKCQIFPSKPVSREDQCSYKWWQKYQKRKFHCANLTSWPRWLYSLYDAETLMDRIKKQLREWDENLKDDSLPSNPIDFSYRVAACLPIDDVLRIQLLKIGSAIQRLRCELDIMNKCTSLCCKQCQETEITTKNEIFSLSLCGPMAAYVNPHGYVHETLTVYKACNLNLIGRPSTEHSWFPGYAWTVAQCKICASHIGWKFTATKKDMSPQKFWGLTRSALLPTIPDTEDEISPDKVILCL
T3 sequence (Q00987 whole entry, looked up, other chains not shown): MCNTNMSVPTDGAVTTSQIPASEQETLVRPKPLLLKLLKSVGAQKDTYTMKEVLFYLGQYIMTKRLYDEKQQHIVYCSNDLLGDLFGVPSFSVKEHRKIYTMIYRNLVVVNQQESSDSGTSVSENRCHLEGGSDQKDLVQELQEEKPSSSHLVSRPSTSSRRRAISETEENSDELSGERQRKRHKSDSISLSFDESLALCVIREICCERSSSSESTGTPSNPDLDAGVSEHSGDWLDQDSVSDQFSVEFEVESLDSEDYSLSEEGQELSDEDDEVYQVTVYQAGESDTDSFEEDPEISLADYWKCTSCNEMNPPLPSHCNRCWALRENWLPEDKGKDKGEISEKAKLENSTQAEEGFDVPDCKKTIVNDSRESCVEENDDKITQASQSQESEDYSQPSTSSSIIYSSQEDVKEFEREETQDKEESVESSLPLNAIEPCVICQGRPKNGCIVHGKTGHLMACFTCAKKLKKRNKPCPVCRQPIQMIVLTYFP
T2 sequence (Q15059 2-726 limits assumed): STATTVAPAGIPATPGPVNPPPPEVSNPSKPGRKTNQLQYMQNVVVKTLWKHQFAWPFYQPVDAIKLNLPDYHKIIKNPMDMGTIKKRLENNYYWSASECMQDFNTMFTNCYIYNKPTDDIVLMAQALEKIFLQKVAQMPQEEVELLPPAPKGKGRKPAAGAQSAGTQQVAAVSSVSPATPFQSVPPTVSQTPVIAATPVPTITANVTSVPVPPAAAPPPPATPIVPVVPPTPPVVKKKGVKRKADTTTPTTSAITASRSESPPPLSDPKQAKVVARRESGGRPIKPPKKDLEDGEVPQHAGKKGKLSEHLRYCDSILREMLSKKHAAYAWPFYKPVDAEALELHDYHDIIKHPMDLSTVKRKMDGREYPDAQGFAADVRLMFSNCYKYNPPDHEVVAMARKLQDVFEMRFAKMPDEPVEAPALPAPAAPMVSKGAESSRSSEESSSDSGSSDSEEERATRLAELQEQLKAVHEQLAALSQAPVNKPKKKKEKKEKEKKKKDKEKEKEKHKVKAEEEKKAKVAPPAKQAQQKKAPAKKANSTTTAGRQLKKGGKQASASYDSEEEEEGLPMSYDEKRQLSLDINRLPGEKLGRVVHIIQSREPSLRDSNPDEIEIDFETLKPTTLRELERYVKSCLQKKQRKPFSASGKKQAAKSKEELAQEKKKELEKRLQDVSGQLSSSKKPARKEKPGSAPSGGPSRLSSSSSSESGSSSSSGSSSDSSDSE
T2 sequence (Q96SW2 whole entry partner): as the sequence (Q96SW2 whole entry, looked up, other chains not shown) above
Sequence of von Hippel-Lindau disease tumor suppressor/Bromodomain-containing protein 4 (P40337 whole entry, looked up, other chains not shown): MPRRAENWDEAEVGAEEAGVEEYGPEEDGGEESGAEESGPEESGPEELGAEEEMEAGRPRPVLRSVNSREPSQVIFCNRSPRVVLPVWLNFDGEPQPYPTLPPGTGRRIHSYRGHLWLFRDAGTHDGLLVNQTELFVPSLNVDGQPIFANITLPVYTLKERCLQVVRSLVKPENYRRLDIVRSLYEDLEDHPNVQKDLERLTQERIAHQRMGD

CCNC(=O)C[C@@H]1N=C(c2ccc(Cl)cc2)c2cc(-c3cccc(B(O)O)c3)ccc2-n2c(C)nnc21
Activity [1]: Active
Activity [2]: inactive

CCNC(=O)C[C@@H]1N=C(c2ccc(Sc3cccc(B(O)O)c3)cc2)c2cc(OC)ccc2-n2c(C)nnc21
Activity [3]: Dose-Dependent Effect
Activity [4]: Active
Activity [5]: Active

O=C1CCC(N2C(=O)c3cccc(CNC(=O)c4cccc(O)c4O)c3C2=O)C(=O)N1 (configuration not stated)
Activity [6]: Active
Activity (BRD2/CRBN (Homo sapiens)): Active
Activity [2]: inactive
Activity [7]: Active

CCNC(=O)C[C@@H]1N=C(c2ccc(Sc3ccccc3)cc2)c2cc(OC)ccc2-n2c(C)nnc21
Activity [8]: inactive

Cc1ncsc1-c1ccc(CNC(=O)[C@@H]2C[C@@H](O)CN2C(=O)[C@@H](NC(=O)c2ccc(O)c(O)c2)C(C)(C)C)cc1
Activity [9]: inactive

COc1ccc(C2=N[C@H](c3ccc(Cl)cc3)[C@@H](c3ccc(Cl)cc3)N2C(=O)N2CCN(CCNC(=O)c3ccc(B(O)O)cc3)C(=O)C2)c(OC(C)C)c1
IC50 (NAMALVA [10]): 724 nM
Activity [11]: Active
Activity [12]: Active
Activity [13]: Active

CCNC(=O)C[C@@H]1N=C(c2ccc(Cl)cc2)c2cc(OCCOCCNC(=O)c3cccc(O)c3O)ccc2-n2c(C)nnc21
IC50 (NAMALVA [14]): 51300 nM
Activity [15]: Active
IC50 (NAMALVA [16]): 724 nM
Activity [17]: Active
Activity [18]: inactive
Activity [19]: Active
Activity [20]: inactive
